Assay results from patent publication US7271158B2, “Treatment of rumen acidosis with α-amylase inhibitors” (Pfizer Inc., priority 2000, dated 2007).

Experiments:
[1] = tested on: bacterial glucosidase activity from bovine rumen fluid cell suspension; assay: Rumen fluid glucosidase assay; type: biochemical, bovine rumen bacteria; settings: rumen fluid glucosidase screen, maltose substrate
Description: Rumen Fluid Glucosidase Assay Protocol This assay is used to determine IC50 values for inhibitors of bacterial glucosidase activity from bovine rumen fluid cell suspension (RFCS) using a colorimetric assay. The assay measures conversion of maltose into glucose. Rumen fluid cells are incubated with maltose in the presence of inhibitors, and the amount of glucose produced is assessed using a red colourimetric endpoint. The higher the level of inhibition the lower the glucose produced and the less red colour produced. The plates are read at 450 nm. Main reaction: • Maltose+glucosidase→glucose Glucose assay • Glucose+ATP→[…] and ADP (Hexokinase and Mg^2+) • […] and NADP→6-phosphogluconate (6-PG) and NADPH • NADPH+phenazine methosulfate ([…] (iodonitrotetrazolium chloride)→[…] is deep red coloured. […] The rumen fluid was collected into pre-warmed vacuum flasks. It was then filtered through a double layer of absorbent gauze (Absorbent gauze BP, GAUZ 4 from Robert Bailey plc, Stockport) to remove hay and feed particles. The liquid was centrifuged at a relative centrifugal force of 650 for 15 minutes to remove food particles and protozoa. The supernatant was decanted into fresh tubes and centrifuged at a relative centrifugal force of 23,300 for 60 minutes. The supernatant and the loose top layer of the pellet were discarded. The pellet was resuspended in PBS at 1:8 of original volume i.e. 50 ml of PBS for the pellet from 400 ml of rumen fluid, and frozen at -20° C. When required for use the cells were thawed by standing the tube in cold water, and then diluted to […] of cells/well (45 μl/ml). Test compounds or controls were dispensed into the 96-well assay plate at 2 μl/well, followed by 50 μl per well of 10 mM maltose and 50 μl/well of rumen fluid cell suspension. The plate was incubated at 37° C. for 1 hour. Sigma glucose detection kit […] was reconstituted by addition of 17 ml of Millipore water and 4 ml of colour reagent to each vial. 100 μl of this solution was added per well and the plate returned to the 37° C. incubator for 45 minutes. The plate was then read at 450 nm. Active compounds cause a reduction in the optical density readings when compared to the no-inhibitor control wells.

[2] = biological target: rumen fluid supernatant amylases; assay: Rumen bacterial amylase assay, protocol 2 (amylose azure); settings: read-out: Average IC50, rumen fluid amylase screen
[3] = biological target: rumen fluid supernatant amylases; assay: Rumen bacterial amylase assay, protocol 1 (Sigma amylase kit 577); type: biochemical, rumen bacteria, Hereford×Friesian calves; settings: for IC50: rumen fluid amylase screen using Sigma kit 577
Excerpt: Rumen Bacterial Amylase Assay—Protocol 1
The enzymatic reactions involved in the assay are as follows:
5 ET-G7PNP→(α-amylase)→2 ET-G5+2 G2PNP+2 ET-G4+2 G3PNP+ET-G3+G4-PNP2 G2PNP+2 G3 PNP→(α-glucosidase)→4 PNP +10 glucose
α-Amylase hydrolyses 4,6-ethylidene-G7-PNP (ET-G7 PNP) to G2, G3 and G4 PNP fragments. α-Glucosidase (α-1,4-glucan glucohydrolase EC 3.2.1.3) hydrolyses G2PNP and G3PNP to yield p-nitrophenol and glucose. Five moles of substrate (ET-G7PNP) is hydrolysed to yield 4 moles of p-nitrophenol p-Nitrophenol absorbs light as 405 nm, and following a two minute lag period the rate of increase in absorbance at 405 nm is directly proportional to α-amylase activity in the well.
Rumen fluid was collected from 4-month-old Hereford×Friesian calves (125–135 kg, supplied by Cwmnant Calves Ltd. Cwmnant. Tregaron. Ceredigion) fed on diet GH 313. The rumen fluid was collected from slaughtered calves into pre-warmed vacuum flasks, as soon as possible after euthanasia. It was then filtered through a double layer of absorbent gauze (Absorbent gauze BP, GAUZ 4 from Robert Bailey plc, Stockport) to remove hay and feed particles. The liquid was centrifuged at a relative centrifugal force of 23,300 for 60 minutes, and the supernatant decanted, avoiding contamination from the loose top layer of the pellet by careful pouring. The supernatant was then aliquoted into 50 ml plastic tubes and frozen at […]. When required for use in an assay the rumen fluid supernatant was thawed by standing the tubes in cold water. Test compounds or controls were dispensed into the 96-well assay plate at 4 μl/well. 100 μl per well of Sigma amylase reagent 577 (made up to half the volume described in the instructions (i.e. 10 ml for a 577-20 vial)) was then added to each well, followed by 100 μl per well of rumen fluid supernatant. A T=0 reading at 405 nm was taken at this stage using an Anthos plate reader. The plate was then incubated at room temperature or 37° C. until an optical density window of approximately 1.000U was seen (typically one hour at 37° C. or three hours at room temperature). A second reading was taken at 405 nm, and the first reading subtracted from it. Active compounds cause a reduction in the optical density readings when compared to the control without the agent being tested.

[4] = tested on: rumen fluid fermentation (RUSITEC chronic acidosis model); assay: RUSITEC rumen simulation, chronic acidosis model: Example 8 and acarbose; type: cell-based, cow; settings: for proportional increase in butyrate production: treatment period vs control period (no treatment: 1%); for change in total VFA production: vs preceding control period (no treatment: −11%)
Description: RUSITEC Result using Example 8 and Acarbose
Daily maintenance procedures as previously described for Acarbose.
Rumen fluid donor cow—Fed GH313Pellets plus barley straw.
Daily Feed—30 g GH313 pellets plus 2.5 g chopped barley straw.
Acarbose: 1 tablet added to each bag to give 100 mg/vessel/d
Example 8: Eight×57 mg pre-weighed samples stored in fridge in […]. On the day before the feed bags were to be placed in RUSITEC, a 57 mg sample was dissolved in 2.28 ml buffer (25 mg/ml). 0.21 ml of this solution was added to 1.9 ml buffer to give a 2.5 mg/ml solution. 1 ml of each solution was added to a prepared feed bag to give 25 and 2.5 mg/vessel/d. and dried overnight at room temperature.

IC50 [1] | IC50 [2] | IC50 [3] | effect in the amylase screen [3] | Structure (SMILES) | increase in mean daily pH ([4]; 0.02 mM) | proportional increase in butyrate production ([4]; 2.5 mg per vessel per day) | change in total VFA production ([4]; 2.5 mg per vessel per day) | proportional increase in butyrate production ([4]; 25 mg per vessel per day) | change in total VFA production ([4]; 25 mg per vessel per day)
33.6 µM | 0.79 µM | 0.17 µM |  | C[C@H]1O[C@H](O[C@@H]2[C@H](O)[C@H](O)[C@@H](O[C@@H]3[C@H](O)[C@@H](O)[C@@H](O[C@@H]4[C@H](O)[C@H](O)[C@@H](O[C@H]5O[C@@H](CO)[C@H](O)[C@H](O)[C@H]5O)O[C@@H]4CO)O[C@@H]3CO)O[C@H]2CO)[C@H](O)[C@@H](O)[C@@H]1N[C@H]1C=C(CO)[C@@H](O[C@H]2O[C@H](CO)[C@H](O[C@H]3O[C@H](C)[C@@H](N[C@H]4C=C(CO)[C@@H](O)[C@H](O)[C@H]4O)[C@H](O)[C@H]3O)[C@H](O)[C@H]2O)[C@H](O)[C@H]1O (stereo in doubt) [Trestatin A] |  |  |  |  | 
4.1 µM |  | 2.89 µM |  | C[C@H]1O[C@H](O[C@@H]2[C@H](O)[C@@H](O)[C@@H](O[C@@H]3[C@H](O)[C@@H](O)[C@@H](O[C@@H]4[C@H](O)[C@H](O)[C@@H](O[C@H]5O[C@H](CO)[C@H](O)[C@H](O)[C@H]5O)O[C@@H]4CO)O[C@@H]3CO)O[C@H]2CO)[C@@H](O)[C@@H](O)[C@@H]1N[C@@H]1C=C(CO)[C@@H](O)[C@@H](O)[C@@H]1O (stereo in doubt) [Trestatin B] |  |  |  |  | 
6.38 µM |  |  | inhibiting effect | CC1OC(OC2C(CO)OC(OC3C(CO)OC(OC4C(CO)OC(OC5C(CO)OC(O)C(O)C5O)C(O)C4O)C(O)C3O)C(O)C2O)C(O)C(O)C1NC1C=C(CO)C(O)C(O)C1O (centres unmarked) [Example 7] |  |  |  |  | 
13.1 µM | 9.45 µM | 0.44 µM |  | CC1OC(OC2C(CO)OC(OC3C(CO)=CC(NC4C(C)OC(OC5C(CO)OC(OC6C(CO)OC(OC7C(CO)OC(OC8C(CO)OC(O)C(O)C8O)C(O)C7O)C(O)C6O)C(O)C5O)C(O)C4O)C(O)C3O)C(O)C2O)C(O)C(O)C1NC1C=C(CO)C(O)C(O)C1O (centres unmarked) [Example 8] | 0.3 units | 18% | −1% | 20% | −8%
65.5 µM | 2.07 µM | 0.57 µM |  | CC1OC(OC2C(CO)OC(OC3C(CO)=CC(NC4C(C)OC(OC5C(CO)OC(OC6C(CO)OC(OC7C(CO)OC(O)C(O)C7O)C(O)C6O)C(O)C5O)C(O)C4O)C(O)C3O)C(O)C2O)C(O)C(O)C1NC1C=C(CO)C(O)C(O)C1O (centres unmarked) [Example V-1532] |  |  |  |  | 
148 µM |  | 0.09 µM |  | C[C@H]1O[C@H](O[C@H]2[C@H](O)[C@@H](O)[C@@H](O[C@H]3[C@H](O)[C@@H](O)[C@@H](O[C@H]4[C@H](O)[C@@H](O)[C@@H](O[C@H]5O[C@H](CO)[C@@H](O)[C@H](O)[C@H]5O)O[C@@H]4CO)O[C@@H]3CO)O[C@@H]2CO)[C@H](O)[C@@H](O)[C@@H]1N[C@H]1C=C(CO)[C@@H](O[C@H]2O[C@H](CO)[C@@H](O[C@H]3O[C@H](C)[C@@H](NC4C=C(CO)[C@@H](O[C@H]5O[C@H](CO)[C@@H](O[C@H]6O[C@H](C)[C@@H](NC7C=C(CO)[C@@H](O)[C@H](O)[C@H]7O)[C@H](O)[C@H]6O)[C@H](O)[C@H]5O)[C@H](O)[C@H]4O)[C@H](O)[C@H]3O)[C@H](O)[C@H]2O)[C@H](O)[C@H]1O (some centres unmarked) [Trestatin C] |  |  |  |  | 
